# According to patent publication US20140341916A1, “THERAPEUTIC COMBINATIONS AND METHODS OF TREATING MELANOMA” (Genentech, Inc., priority 2011, published 2014):
# Legend:
# phosphor-ERK = test: Phospho-ERK in melanoma cells, Western blot; assay type: cell-based, human; details: IPC-298 cells (BRAF wild-type, RAS Q61L), 24 h
# Description: (§1) Melanoma cell lines UACC-257X2.2, A2058, COLO 829, IPC-298 (ATCC) were treated with a BRAF inhibitor drug (“BRAFi”), specifically RG7204 at varying concentrations by adding the appropriate drug volume to cells in culture for 24 h on four-well dishes.
# (§2) To test whether the increase in ETBR transcripts due to BRAFi treatment also results in any changes in ETBR total protein levels, Western blot experiments were performed on the same cell lines treated with BRAFi RG7204 as described above. For Western blotting, the following reagents were used: for detection of proteins: an anti-ETBR in-house generated monoclonal antibody 1H1.8.5, anti-Phospho-p44/42 MAPK (Erk1/2) (Thr202/Tyr204) antibody (9101, Cell Signaling Technology), anti-p44/42 MAPK (Erk1/2) antibody (9102, Cell Signaling Technology) and as controls, a rabbit polyclonal anti-GAPDH (glyceraldehyde-3-phosphate dehydrogenase) antibody (PA1-987; Affinity Bioreagents) and mouse monoclonal anti-β-Tubulin antibody (556321, BD Pharmingen). The results for UACC-257X2.2 are shown in FIG. 4B, the results for A2058 are shown in FIG. 8B, the results for COLO 829 are shown in FIG. 6B and the results for IPC-298 are shown in FIG. 10.
# ETBR transcript = ETBR transcript level in melanoma cell lines, Taqman, normalized to RPL19; assay type: cell-based, human; details: 24 h
# Description: as §1
# (§3) To determine the effect of BRAFi on ETBR and control ribosomal protein L19 (RPL19) transcript levels, the following experiments were performed. Cells treated with RG7204 for 24 h were harvested from plates by scraping and processed for total RNA using Qiashredder and RNeasy mini kits (79654, 74104 from Qiagen, Valencia, Calif.). Taqman assays were set up using reagents from Applied Biosystems (ABI, Foster City, Calif.) and assayed using 7500 Real Time PCR machine and software from ABI. Primer-probe sets were designed with primers flanking a fluorogenic probe dual labeled with Reporter dye FAM and quencher dye TAMRA.
# (§4) Melanoma cell lines A2058, COLO 829, SK23-MEL and IPC-298 (ATCC) were treated with a MEK inhibitor drug (“MEKi-973” or “MEKi-623”), at varying concentrations (0 μM, 0.01 μM, 0.1 μM or 1 μM) by adding the appropriate drug volume to cells in culture for 24 h on four-well dishes.
# as §3, with “MEKi” for “BRAFi”, “ETBR” for “ETBR and control ribosomal protein L19 (RPL19)”, “performed as described above in Example 3.” for “performed.”, “either MEKi-973” for “RG7204”
# Phosphorylated erk = test: PD study, phosphorylated erk in COLO 829 tumors, Western blot; assay type: in vivo, mice; details: 30 mpk BRAFi RG7204
# Description: A2058 or COLO 829 tumors were grown to an average size of approximately 200 mm^3, whereupon animals were randomized into groups of 5-6 each. For the BRAFi PD study, an appropriate vehicle control (Klucel LF) or RG7204 at doses of 10 mpk or 30 mpk were administered twice a day for 3 days (FIG. 27A). For the MEKi PD study, an appropriate vehicle control or MEKi-973 at doses of 5 mpk and 10 mpk were administered orally once a day for 3 days (FIG. 27B). Flash frozen tumors harvested at end of study were homogenized and processed for RNA and/or protein. Taqman assays were set up using reagents from Applied Biosystems (ABI, Foster City, Calif.) and assayed using 7500 Real Time PCR machine and software from ABI. Primer-probe sets were designed with primers flanking a fluorogenic probe dual labeled with Reporter dye FAM and quencher dye TAMRA. […]
# Phosphorylated erk and total erk protein levels were evaluated in the tumors by western blotting using the following reagents: for detection of proteins: anti-Phospho-p44/42 MAPK (Erk1/2) (Thr202/Tyr204) antibody (9101, Cell Signaling Technology), anti-p44/42 MAPK (Erk1/2) antibody (9102, Cell Signaling Technology) and mouse monoclonal anti-β-Tubulin antibody (556321, BD Pharmingen) as control (FIG. 26).
# ETBR total protein = ETBR total protein in melanoma cell lines, Western blot; assay type: cell-based, human; details: 24 h
# Description: as §1, §2, §4
# To test whether the increase in ETBR transcripts due to MEKi treatment also results in any changes in ETBR total protein levels, Western blot experiments were performed on cell lines COLO829 (BRAF^V600E), A2058 (BRAF^V600E), SK23-MEL (BRAF^WT/RAS^WT), or IPC-298 (BRAF^WT/RAS^[…]) which were treated with MEKi-973 as described above. For Western blotting, the following reagents were used: for detection of proteins: an anti-ETBR in-house generated monoclonal antibody 1H1.8.5, anti-Phospho-p44/42 MAPK (Erk1/2) (Thr202/Tyr204) antibody (9101, Cell Signaling Technology), anti-p44/42 MAPK (Erk1/2) antibody (9102, Cell Signaling Technology) and as controls, a rabbit polyclonal anti-GAPDH (glyceraldehyde-3-phosphate dehydrogenase) antibody (PA1-987; Affinity Bioreagents) and mouse monoclonal anti-β-Tubulin antibody (556321, BD Pharmingen). The results for A2058 are shown in FIG. 15A treated with MEKi-623 and 15B treated with MEKi-973, the results for COLO 829 are shown in FIG. 12A treated with MEKi-623 and 12B treated with MEKi-973, the results for SK23-MEL are shown in FIG. 19A treated with MEKi-623 and 19B treated with MEKi-973, and the results for IPC-298 are shown in FIG. 22A treated with MEKi-623 and 22B treated with MEKi-973.
# A2058 = test: In vitro killing of A2058 by RG7204 (data not shown); assay type: cell-based, human
# [1] = system: COLO 829 melanoma xenograft; test: In vivo efficacy, subcutaneous melanoma xenograft, tumor volume / % TGI; parameters: species or system mice
# Description: The average tumor volumes were determined from 10 animals per group. Tumor volumes were measured twice per week until study end. Tumor volumes were measured in two dimensions (length and width) using UltraCal IV calipers (Model 54 10 111, Fred V. Fowler Company; Newton, Mass.). The following formula was used with Excel, version 12.2.8 (Microsoft; Redmond, Wash.) to calculate tumor volume: Tumor Volume (mm3)=(length×width)×0.5
# To analyze the repeated measurement of tumor volumes from the same animals over time, a mixed-modeling Linear Mixed Effects (LME) approach was used (Pinheiro et al. 2009). This approach can address both repeated measurements and a modest drop-out rate due to non-treatment-related termination of animals prior to study end. Cubic regression splines were used to fit a non-linear profile to the time courses of log 2 tumor volume at each dose level. These non-linear profiles were then related to dose within the mixed model. Tumor growth inhibition (TGI) as a percentage of vehicle was calculated as percent area under the fitted curve (AUC) per day in relation to the vehicle, using the following formula:
# To get uncertainty intervals (UIs) for % TGI, the fitted curve and the fitted covariance matrix were used to generate a random sample as an approximation to the distribution of % TGI. The random sample is composed of 1000 simulated realizations of the fitted-mixed model, where the % TGI has been recalculated for each realization. Here, in the reported UI is the value for which 95% of the time, the recalculated values of % TGI will fall in this region given the fitted model. The 2.5 and 97.5 percentiles of the simulated distribution were used as the upper and lower UIs.
# The COLO 829 xenograft model was chosen as representative of medium levels of ETBR expression, further increasing the stringency of the combination studies. Tumors were grown to an average size of approximately 200 mm^3, whereupon animals were randomized into groups of 9 each. An appropriate vehicle control (Klucel LF) or G00044364.1-12 (RG7204) at doses of 10 mpk or 30 mpk were administered orally twice a day for 21 days starting on day 0.
compound,measurement,setting,value
"CCCS(=O)(=O)Nc1ccc(F)c(C(=O)c2c[nH]c3ncc(-c4ccc(Cl)cc4)cc23)c1F [RG7204, propane-1-sulfonic acid {3-[5-(4-chlorophenyl)-1H-pyrrolo[2,3-b]pyridine-3-carbonyl]-2,4-difluoro-phenyl}-amide]",phosphor-ERK level,phosphor-ERK,appears to activate the levels of phosphor-ERK
same,ETBR transcript vs untreated control cells,ETBR transcript; A2058 cells,appears to increase the ETBR transcripts
same,ETBR transcript vs untreated control cells,ETBR transcript; COLO 829 cells,appears to increase the ETBR transcripts
same,ETBR transcript vs untreated control cells,ETBR transcript; UACC-257X2.2 cells,appears to increase the ETBR transcripts
same,Perk in tumors vs control,Phosphorylated erk,appears to inhibit Perk in vivo
same,ETBR total protein level vs untreated control cells,ETBR total protein; A2058 cells (BRAF V600E),appears to increase the ETBR total protein levels
same,ETBR total protein level vs untreated control cells,ETBR total protein; COLO 829 cells (BRAF V600E),appears to increase the ETBR total protein levels
same,ETBR total protein level vs untreated control cells,"ETBR total protein; IPC-298 cells (BRAF wild-type, RAS mutant)",does not appear to increase ETBR levels
same,ETBR total protein level vs untreated control cells,ETBR total protein; UACC-257X2.2 cells,appears to increase the ETBR total protein levels
same,in vitro killing efficacy,A2058,> 20 µM
same,% TGI Single Agent BRAFi vs. control,[1]; BRAFi Qdx21 10 mg/kg,27%
same,% TGI Single Agent BRAFi vs. control,[1]; BRAFi Qdx21 30 mg/kg,83%
